Laboratory results reported in US9597407B2, “Targeted antimicrobial moieties” (C3 Jian, Inc., priority 2009, dated 2017).
“Also recorded” adds a separate entry of the source.

Tested on: bacteria
Test: Binding of targeting peptides to microorganisms (Table 3)
Details: peptide binding in aqueous buffers varied by peptide solubility; preferably 1x PBS

## 1T-32 (VSFLAGWLCLGLAAWRLGNA; Peptide with targeting and/or antimicrobial activity) [Peptide 1T-32]
  Target(s) (microorganism bound by the targeting peptide): S. mutans

## 1T-33 (VRTLTILVIFIFNYLKSISYKLKQPFENNLAQSMISI; Peptide with targeting and/or antimicrobial activity) [Peptide 1T-33]
  Target(s) (microorganism bound by the targeting peptide): S. aureus; also recorded: S. epidermidis; also recorded: C. jeikeium; also recorded: C. xerosis; also recorded: C. striatum; also recorded: P. aeruginosa

## 1T-34 (AFWLNILLTLLGYIPGIVHAVYIIAKR; Peptide with targeting and/or antimicrobial activity) [Peptide 1T-34]
  Target(s) (microorganism bound by the targeting peptide): S. aureus; also recorded: S. epidermidis; also recorded: C. jeikeium; also recorded: C. xerosis; also recorded: C. striatum; also recorded: P. aeruginosa

## 1T-35 (EICLTLVFPIRGSYSEAAKFPVPIHIVEDGTVELPK; Peptide with targeting and/or antimicrobial activity) [Peptide 1T-35]
  Target(s) (microorganism bound by the targeting peptide): P. aeruginosa

## 1T-36 (VYRHLRFIDGKLVEIRLERK; Peptide with targeting and/or antimicrobial activity) [Peptide 1T-36]
  Target(s) (microorganism bound by the targeting peptide): S. aureus; also recorded: S. epidermidis; also recorded: C. jeikeium; also recorded: C. xerosis; also recorded: C. striatum; also recorded: P. aeruginosa

## 1T-37 (YIVGALVILAVAGLIYSMLRKA; Peptide with targeting and/or antimicrobial activity) [Peptide 1T-37]
  Target(s) (microorganism bound by the targeting peptide): S. mutans; also recorded: S. aereus; also recorded: S. epidermidis; also recorded: C. jeikeium; also recorded: C. xerosis; also recorded: C. striatum; also recorded: P. aeruginosa

## 1T-38 (VMFVLTRGRSPRPMIPAY; Peptide with targeting and/or antimicrobial activity) [Peptide 1T-38]
  Target(s) (microorganism bound by the targeting peptide): S. mutans; also recorded: S. aereus; also recorded: S. epidermidis; also recorded: C. jeikeium; also recorded: C. xerosis; also recorded: C. striatum; also recorded: P. aeruginosa

## 1T-39 (FGFCVWMYQLLAGPPGPPA; Peptide with targeting and/or antimicrobial activity) [Peptide 1T-39]
  Target(s) (microorganism bound by the targeting peptide): S. mutans; also recorded: P. aeruginosa

## 1T-40 (QRVSLWSEVEHEFR; Peptide with targeting and/or antimicrobial activity) [Peptide 1T-40]
  Target(s) (microorganism bound by the targeting peptide): S. mutans; also recorded: P. aeruginosa

## 1T-41 (KRGSKIVIAIAVVLIVLAGVWVW; Peptide with targeting and/or antimicrobial activity) [Peptide 1T-41]
  Target(s) (microorganism bound by the targeting peptide): S. mutans; also recorded: S. aureus; also recorded: S. epidermidis; also recorded: C. jeikeium; also recorded: C. striatum; also recorded: P. aeruginosa

## 1T-42 (TVLDWLSLALATGLFVYLLVALLRADRA; Peptide with targeting and/or antimicrobial activity) [Peptide 1T-42]
  Target(s) (microorganism bound by the targeting peptide): S. aureus; also recorded: S. epidermidis; also recorded: C. xerosis; also recorded: C. striatum; also recorded: P. aeruginosa

## 1T-43 (DRCLSVLSWSPPKVSPLI; Peptide with targeting and/or antimicrobial activity) [Peptide 1T-43]
  Target(s) (microorganism bound by the targeting peptide): C. jeikium; also recorded: P. aeruginosa

## 1T-44 (DPALADFAAGMRAQVRT; Peptide with targeting and/or antimicrobial activity) [Peptide 1T-44]
  Target(s) (microorganism bound by the targeting peptide): S. mutans; also recorded: S. aureus; also recorded: S. epidermidis; also recorded: C. jeikeium; also recorded: C. striatum; also recorded: P. aeruginosa

## 1T-45 (WTKPSFTDLRLGFEVTLYFANR; Peptide with targeting and/or antimicrobial activity) [Peptide 1T-45]
  Target(s) (microorganism bound by the targeting peptide): S. aureus; also recorded: S. epidermidis; also recorded: C. striatum; also recorded: P. aeruginosa

## 1T-46 (FSFKQRVMFRKEVERLR; Peptide with targeting and/or antimicrobial activity) [Peptide 1T-46]
  Target(s) (microorganism bound by the targeting peptide): S. aureus; also recorded: S. epidermidis; also recorded: C. jeikeium; also recorded: C. xerosis; also recorded: C. striatum; also recorded: P. aeruginosa

## 1T-47 (VIKISVPGQVQMLIP; Peptide with targeting and/or antimicrobial activity) [Peptide 1T-47]
  Target(s) (microorganism bound by the targeting peptide): S. mutans; also recorded: S. epidermidis; also recorded: P. aeruginosa

## 1T-48 (KLQVHHGRATHTLLLQPPLCAPGTIR; Peptide with targeting and/or antimicrobial activity) [Peptide 1T-48]
  Target(s) (microorganism bound by the targeting peptide): S. aureus; also recorded: S. epidermidis; also recorded: C. jeikeium; also recorded: C. xerosis; also recorded: C. striatum; also recorded: P. aeruginosa

## 1T-49 (SLVRIHDQQPWVTRGAFIDAARTCS; Peptide with targeting and/or antimicrobial activity) [Peptide 1T-49]
  Target(s) (microorganism bound by the targeting peptide): S. aureus; also recorded: S. epidermidis; also recorded: C. jeikeium; also recorded: P. aeruginosa

## 1T-50 (HSDEPIPNILFKSDSVH; Peptide with targeting and/or antimicrobial activity) [Peptide 1T-50]
  Target(s) (microorganism bound by the targeting peptide): P. aeruginosa

## 1T-51 (GKPKRMPAEFIDGYGQALLAGA; Peptide with targeting and/or antimicrobial activity) [Peptide 1T-51]
  Target(s) (microorganism bound by the targeting peptide): S. aureus; also recorded: P. aeruginosa

## 1T-52 (DEYPAKLPLSDKGATEPRRH; Peptide with targeting and/or antimicrobial activity) [Peptide 1T-52]
  Target(s) (microorganism bound by the targeting peptide): S. aureus; also recorded: C. xerosis; also recorded: P. aeruginosa

## 1T-53 (SDILAEMFEKGELQTLVKDAAAKANA; Peptide with targeting and/or antimicrobial activity) [Peptide 1T-53]
  Target(s) (microorganism bound by the targeting peptide): P. aeruginosa

## 1T-54 (RWVSCNPSWRIQ; Peptide with targeting and/or antimicrobial activity) [Peptide 1T-54]
  Target(s) (microorganism bound by the targeting peptide): S. epidermidis; also recorded: C. xerosis; also recorded: C. striatum; also recorded: P. aeruginosa

## 1T-55 (NHKTLKEWKAKWGPEAVESWATLLG; Peptide with targeting and/or antimicrobial activity) [Peptide 1T-55]
  Target(s) (microorganism bound by the targeting peptide): C. xerosis; also recorded: P. aeruginosa

## 1T-56 (LALIGAGIWMIRKG; Peptide with targeting and/or antimicrobial activity) [Peptide 1T-56]
  Target(s) (microorganism bound by the targeting peptide): C. xerosis; also recorded: P. aeruginosa

## 1T-57 (RLEYRRLETQVEENPESGRRPMRG; Peptide with targeting and/or antimicrobial activity) [Peptide 1T-57]
  Target(s) (microorganism bound by the targeting peptide): P. aeruginosa

## 1T-58 (CDDLHALERAGKLDALLSA; Peptide with targeting and/or antimicrobial activity) [Peptide 1T-58]
  Target(s) (microorganism bound by the targeting peptide): P. aeruginosa
